The supplement of paper PMC10307832

Key:
Test in all cases: relative viability (nuclei count vs DMSO), 5 days (fraction); higher = more cells survive
NCI-H1355 = test system: NCI-H1355
In short: (§1)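 Lung cancer cell lines were pin-tool dosed in 1536-well plates on the day after seeding, with either a lone drug or a fixed anchor-drug dose plus five library-drug doses (not always all listed) in √10 steps. Nuclei were counted on 4× images after 5 days. Relative viability is the ratio of treated-well to vehicle-well nuclei counts, with each value a median of duplicate plates.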

NCI-H1437 = test system: NCI-H1437
In short: as §1

HARA = test system: HARA
In short: as §1

HCC-44 = test system: HCC-44
In short: as §1

NCI-H2342 = test system: NCI-H2342
In short: as §1

NCI-H2228 = test system: NCI-H2228
In short: as §1

NCI-H1734 = test system: NCI-H1734
In short: as §1

NCI-H2170 = test system: NCI-H2170
In short: as §1

NCI-H1792 = test system: NCI-H1792
In short: as §1

HCC-827 = test system: HCC-827
In short: as §1

EKVX = test system: EKVX
In short: as §1

NCI-H2009 = test system: NCI-H2009
In short: as §1

SMILES: COc1cc(N2CCC(C(N)=O)CC2)ccc1Nc1nc(N)c(Cl)c(Nc2ccccc2S(=O)(=O)C(C)C)n1 [HG-5-88-01] + CC(=O)c1c(C)c2cnc(Nc3ccc(N4CCNCC4)cn3)nc2n(C2CCCC2)c1=O [Palbociclib] (partner 0.5 µM)
- relative viability (NCI-H1355; first compound 0.04 µM): 0.4
- relative viability (NCI-H1355; first compound 0.1265 µM): 0.394
- relative viability (NCI-H1355; first compound 0.4 µM): 0.426
- relative viability (NCI-H1355; first compound 1.265 µM): 0.338
- relative viability (NCI-H1355; first compound 4 µM): 0.362
- relative viability (NCI-H1437; first compound 0.04 µM): 0.372
- relative viability (NCI-H1437; first compound 0.1265 µM): 0.299
- relative viability (NCI-H1437; first compound 0.4 µM): 0.271
- relative viability (NCI-H1437; first compound 1.265 µM): 0.28
- relative viability (NCI-H1437; first compound 4 µM): 0.243
- relative viability (HARA; first compound 0.04 µM): 0.234
- relative viability (HARA; first compound 0.1265 µM): 0.177
- relative viability (HARA; first compound 0.4 µM): 0.2
- relative viability (HARA; first compound 1.265 µM): 0.218
- relative viability (HARA; first compound 4 µM): 0.253
- relative viability (HCC-44; first compound 0.04 µM): 0.983
- relative viability (HCC-44; first compound 0.1265 µM): 0.957
- relative viability (HCC-44; first compound 0.4 µM): 0.864
- relative viability (HCC-44; first compound 1.265 µM): 0.954
- relative viability (HCC-44; first compound 4 µM): 0.943
- relative viability (NCI-H2342; first compound 0.04 µM): 0.557
- relative viability (NCI-H2342; first compound 0.1265 µM): 0.54
- relative viability (NCI-H2342; first compound 0.4 µM): 0.471
- relative viability (NCI-H2342; first compound 4 µM): 0.539
- relative viability (NCI-H2228; first compound 0.04 µM): 0.388
- relative viability (NCI-H2228; first compound 0.1265 µM): 0.388
- relative viability (NCI-H2228; first compound 0.4 µM): 0.319
- relative viability (NCI-H2228; first compound 1.265 µM): 0.247
- relative viability (NCI-H2228; first compound 4 µM): 0.231
- relative viability (NCI-H1734; first compound 0.04 µM): 0.367
- relative viability (NCI-H1734; first compound 0.1265 µM): 0.301
- relative viability (NCI-H1734; first compound 0.4 µM): 0.326
- relative viability (NCI-H1734; first compound 1.265 µM): 0.33
- relative viability (NCI-H1734; first compound 4 µM): 0.312
- relative viability (NCI-H2170; first compound 0.04 µM): 0.366
- relative viability (NCI-H2170; first compound 0.1265 µM): 0.386
- relative viability (NCI-H2170; first compound 0.4 µM): 0.407
- relative viability (NCI-H2170; first compound 1.265 µM): 0.361
- relative viability (NCI-H2170; first compound 4 µM): 0.457
- relative viability (NCI-H1792; first compound 0.04 µM): 0.74
- relative viability (NCI-H1792; first compound 0.1265 µM): 0.675
- relative viability (NCI-H1792; first compound 0.4 µM): 0.623
- relative viability (NCI-H1792; first compound 4 µM): 0.614
- relative viability (HCC-827; first compound 0.04 µM): 0.583
- relative viability (HCC-827; first compound 0.1265 µM): 0.459
- relative viability (HCC-827; first compound 0.4 µM): 0.425
- relative viability (HCC-827; first compound 1.265 µM): 0.197
- relative viability (HCC-827; first compound 4 µM): 0.33
- relative viability (EKVX; first compound 0.04 µM): 0.507
- relative viability (EKVX; first compound 0.1265 µM): 0.425
- relative viability (EKVX; first compound 0.4 µM): 0.389
- relative viability (EKVX; first compound 4 µM): 0.293
- relative viability (NCI-H2009; first compound 0.04 µM): 0.187
- relative viability (NCI-H2009; first compound 0.1265 µM): 0.281
- relative viability (NCI-H2009; first compound 0.4 µM): 0.242
